# From patent US6069156A, “Indole derivatives as cGMP-PDE inhibitors” (Fujisawa Pharmaceutical Co., Ltd., priority 1995, dated 2000)
# How the values were obtained:
# [1] = test system: blood flow of corpus spongiosum penis and corpus cavernosum penis; assay: Impotence Model (c): penile blood flow in anesthetized beagle; assay type: in vivo, Male beagle
# Description: (c) Male beagle weighing 8.0-12.0 kg were anesthetized with pentobarbital sodium (35 mg/kg, i.v.). After tracheotomy, the animal was artificially ventilated using a volume-cycled ventilator. The femoral artery was cannulated for continuous blood pressure and heart rate monitoring. The femoral vein was cannulated for maintenance of anesthesia and administration of tested compound. Two laser-dopper probes were placed in the corpus spongiosum penis and corpus cavernosum penis for recording blood flow. After a period of stabilization of all parameters, tested compound was injected intravenously at a various concentration. […] The increase in blood flow reached a peak value of 55% of baseline and continued for longer than 15 minutes after the administration of said compound 1.0 mg/kg.
# [2] = test system: streptozotocin-induced diabetes mellitus; assay: Diabetic Glomerulosclerosis Model (streptozotocin); assay type: in vivo, Male SD rats
# Description: Diabetic Glomerulosclerosis Model
# 6 weeks old Male SD rats were treated with streptozotocin (60 mg/kg i.v.) to induce diabetes mellitus. One week after streptozotocin treatment, test compound, 3.2, 10 mg/kg was started to be orally administered twice a day for 16 weeks.
# corpora cavernosa = assay: Effect on the Relaxation Elicited by Electrical Field Stimulation in rat Corpora Cavernosa; conditions: compound at 10^-7 M
# Description: (b) Effect of Test Compound on the Relaxation Elicited by Electrical Field Stimulation in rat Corpora Cavernosa.
# The rat erectile tissue strip prepared according to the method described by Italiano et al. (Pharmacological Research, 30, No4, 1994) was placed 25 ml organ bath containing Krebs-Ringer solution. The bath was maintained at 37° C. and bubbled with 95% O2 and 5% CO2. The solution also contained atropine (1 μM) and guanethidine (50 μM). The erectile tissue strip was stretched with a resting force of 0.25 g, and isometric contraction were recorded via force development transducer on a recorder. The bipolar platinum electrode connected to the electric stimulator was placed around the strip.
# The strip was equilibrated in the Krebs-Ringer solution for about 60 minutes and preconstructed by 0.1 mM norepinephrine to ascertain the responsibility of each preparation. The strip was washed several times, and then constricted by 0.1 mM norepinephrine. After getting stable contractile response to norepinephrine, the first electrical field stimulation (1 to 45 Hz, 20V, 0.5 msec duration, 90 sec interval) was delivered. 30 minutes after adding the tested compound, the second electrical field stimulation was delivered.
# [3] = 10 mg/kg orally twice a day for 16 weeks
# [4] = 3.2, 10 mg/kg orally twice a day for 16 weeks
structure (smiles),measurement,setting,value
"CCCc1c(C(=O)C(C)C)c2ccc(C(N)=O)cc2n1Cc1ccccc1Cl [Example 6, 1-(2-chlorobenzyl)-3-isobutyryl-2-propylindole-6-carboxamide]",duration of increase in blood flow,[1]; 1.0 mg/kg intravenous,> 15 min
same,peak value of increase in blood flow (of baseline),[1]; 1.0 mg/kg intravenous,55%
same,blood flow of corpus spongiosum penis and corpus cavernosum penis,[1]; intravenous,increased in the blood flow of both corpus spongiosum penis and corpus cavernosum penis
same,hemodynamic change,[1]; intravenous,without hemodynamic change
same,4-hydroxyproline contents in renal cortex,[2]; [3],perfectly inhibited the increased 4-hydroxyproline contents in renal cortex
same,reduction on average of the elimination of protein in urine,[2]; [3],37%
same,valiance of RR intervals in cardioelectrography,[2]; [3],perfectly recovered the reduced valiance of RR intervals
same,blood flow in ears,[2]; [4],improved the decreased blood flow in ears
same,onset of diabetic cataract,[2]; [4],retarded the onset of diabetic cataract
same,parameters reflecting the abnormalities of peripheral circulation,[2]; [4],improved the parameters reflecting the abnormalities of peripheral circulation
same,skin temperature on foot pad,[2]; [4],raised the decreased skin temperature on foot pad
same,relaxation of corpora cavernosa elicited by electrical field stimulation,corpora cavernosa,potentiated relaxation of corpora cavernosa elicited by electrical field stimulation
same,Relaxant response elicited by 30 Hz,corpora cavernosa; control 14.3%,17.1%
